Measurements from patent US20240343699A1, “DERIVATIVES OF SUBSTITUTED MORPHOLINES AND USES THEREOF” (Supernus Pharmaceuticals, Inc., priority 2023, published 2024).
Read-outs that look alike come from different tables or passages of the source.

How the values were obtained:
behavioral signature = assay: SmartCube phenotypic screening (class/subclass and DRFA similarity analysis); type: in vivo, male C57/B16 mice; conditions: for proximity to donepezil / proximity to thioperamide: DRFA dose by dose, maximum (COMPOUND A: 90 and 120 mg/kg); for Subclass signature: COMPOUND A 30-120 mg/kg, COMPOUND B 90 and 120 mg/kg PO
Procedure: A study was conducted to evaluate the CNS-like efficacy of novel test compounds using the SmartCube® System.
Animals. Male C57/B16 mice from Taconic Laboratories (Germantown, NY) were used. Upon receipt, mice were group-housed in OPTIMice® ventilated cages with 4 mice per cage. Mice were acclimated to the colony room for at least one week prior to test, and subsequently tested at approximately 8-9 weeks of age. All animals were examined, handled, and weighed prior to initiation of the study to assure adequate health and suitability and to minimize nonspecific stress associated with manipulation. During the course of the study, 12/12 light/dark cycles were maintained. The room temperature was 20-23° C. with a relative humidity maintained between 30-70%. Chow and water were provided ad libitum for the duration of the study.
Test compounds. All compounds were administered orally at a dose volume of 10 mL/kg, 20 minutes prior to testing. Formulations were prepared fresh on day of testing and dosing was completed within one hour of formulation. Compounds were prepared according to the table below. Twelve mice were used in each treatment group:
SmartCube®. The SmartCube® system is designed to and can successfully measure numerous spontaneous behaviors and response to challenges in the same testing environment. The hardware includes force sensors and a number of aversive stimuli to elicit behavior. Three high-resolution video cameras provide constant 3D view of the mouse in the SmartCube® apparatus (SC) throughout the entire testing period. During the 45-minute test session the mice are exposed to a sequence of challenges. The cubes are cleaned between each run.
Digital videos of the subjects were processed through computer segmentation algorithms to fit geometrical models to each mouse frame image. The resulting fitted parameters were then analyzed using behavioral classifier algorithms to extract behavioral states, such as rearing, locomotion, and immobility. The data obtained in this way was used to define a drug signature for PGI's known reference compounds and establish a therapeutic class signature against which a test sample can be compared.
The data mining effort utilizes several analytical methods including Bayesian probabilistic density models and Decision trees. The algorithms consider ˜2,600 measures including frequency and duration of behavioral states such as grooming, rearing, etc., and many other features obtained during the test session.
Two major types of analyses are routinely conducted: Class and subclass.
Each reference drug was tested at multiple doses appropriate for that drug in mice.
Multiple analyses of the data were performed to quantitatively produce independent predictions of drug class, and drug subclass. The behavioral signatures of the test drugs were evaluated using these classifiers to predict potential therapeutic utility.
The results for the class and subclass analyses are presented as standardized bar charts with percentages that sum to 100 for each dose.
Similarity Analysis Using “Clouds Framework”. The outcome from SmartCube® is a large set of features (behavioral parameters) that can be used for various analyses. […] Therefore, we formed statistically independent combinations of the original features (further referred to as de-correlated features). Each de-correlated feature extracted information from the whole cluster of the original features, so the new feature space would have lower dimensionality. Next, we applied a proprietary feature ranking algorithm to score each feature for its discrimination power (ability to separate the two groups, e.g. vehicle from treatment). Ranking is an important part of our analyses because it weighs each feature change by its relevance. We applied a feature ranking algorithm, derived from support vector in the support vector machine learning method, to rank each feature.

[1] = Metabolic stability in human intestinal homogenate; type: in vitro ADME; conditions: for half-life at 1 μM / microsomal CLint at 1 μM: pH 7.2
Procedure: Incubation Buffer (PBK): 50 mM potassium phosphate buffer (PBK) was prepared from 1 M potassium phosphate buffer, pH 7.2. […] The dilution of 1 mM intermediate was prepared from 10 mM stock with 90% methanol/water, then […] working solutions were prepared by diluting the 1 mM intermediates with 50 mM PBK. […] Prior to use, the stock solutions were brought to room temperature and thoroughly mixed. […] Cofactors Solutions: the cofactor solution was made at 10 mM of NADPH (nicotinamide-adenine dinucleotide phosphate, reduced form) in 50 mM PBK buffer.
The incubation was carried out in 96-well plates. The intestinal homogenate mixture solution was added to 96-well plates (80 μL/well) in duplicate. […] Reaction was initiated by adding cofactor solution at 10 µL/well. The plates were incubated at 37° C. in a water bath with shaking. […] The final organic solvent content in the incubation was ≤1%.
At specified time points, i.e., 5, 10, 20, 30 and 60 minutes, NCF60 (no cofactor at 60 min, without adding NADPH replaced with 50 mM PBK buffer) reaction was stopped by adding three volumes of stop solution. The time zero (To) samples were prepared by adding three volumes of stop solution to intestinal homogenate samples, followed by addition of test article or control, and cofactor solution 10 μL/well.
Subsequently, 100 μL of supernatant was removed from each well, diluted with 100 μL pure water and analyzed by LC/MS/MS.
A study was conducted to examine the metabolic stability. […] Positive controls: 7-hydroxycoumarin and Testosterone.

[2] = Preclinical PK: plasma viloxazine after PO dosing of COMPOUND D or COMPOUND E; type: in vivo, mouse; conditions: individual mice
Procedure: A study was conducted for preclinical PK performance of COMPOUND D and COMPOUND E. Please see below for details on the study, with fasted mice orally dosed with COMPOUND D or COMPOUND E.
Relevant data are summarized in below tables (ND=Not determined (Parameters not determined due to inadequately defined terminal elimination phase. BQL=Below the lower limit of quantitation (LLOQ). If the adjusted rsq (linear regression coefficient of the concentration value on the terminal phase) is less than 0.9, T1/2 might not be accurately estimated. If the % AUCExtra>20%, AUC0-inf, Cl, MRT0-inf and Vdss might not be accurately estimated. If the % AUMCExtra>20%, MRT0-inf and Vdss might not be accurately estimated. a: Bioavailability (%) was calculated using AUC0-inf (% AUCExtra<20%) or AUC0-last (% AUCExtra>20%) with nominal dose)

[3] = Plasma stability in rat plasma; type: in vitro ADME, Sprague Dawley rat; conditions: final concentration 2 μM
Procedure: A study was conducted to examine the plasma stability. Test Compounds: COMPOUND D, COMPOUND E, and Viloxazine. Positive controls: Enalapril and Propantheline.
A study was conducted to examine the bioanalytical data for compounds in Rat plasma. Frozen Sprague Dawley rat (male pooled) and human (mixed gender) plasma was utilized for the study. Test compounds were dissolved in dimethyl sulfoxide (DMSO) to make a 10 mM stock solution. A working solution was made with MeOH/water. COMPOUND E ([…]) was incubated with plasma in duplicates at 37° C. in a water bath. Sampling timepoints included 0, 5, 15, 30, and 60 min Enalapril and propantheline were used as positive control for rat and human plasma at 2 μM

[4] = human intestinal homogenate, 1 μM, 0 min
[5] = human intestinal homogenate, 1 μM, 5 min
[6] = human intestinal homogenate, 1 μM, 10 min
[7] = human intestinal homogenate, 1 μM, 20 min
[8] = human intestinal homogenate, 1 μM, 30 min
[9] = human intestinal homogenate, 1 μM, 60 min
[10] = human intestinal homogenate, 1 μM, NCF60 (no cofactor at 60 min)
[11] = human intestinal homogenate, 1 μM
[12] = human intestinal homogenate, 1 μM, read-out: CLint(HIH)
[13] = intestinal homogenate, Human intestinal homogenates
[14] = intestinal homogenate, Human intestinal homogenates, read-out: CLint(mic.)

For `CCOc1ccccc1OC[C@@H]1CN(C(=O)OC(OC(=O)[C@H](N)C(C)C)C(C)C)CCO1` (stereo partly shown) [COMPOUND C], the “behavioral activity (class/subclass analysis)” value (behavioral signature; 60-150 mg/kg PO) was “high behavioral activity”, the proximity to donepezil (behavioral signature) was “around 100%” and the proximity to thioperamide (behavioral signature) was “around 100%”. The proximity to amphetamine (behavioral signature; DRFA, active doses) was greater than 75%, the proximity to atomoxetine (behavioral signature; DRFA, active doses) was greater than 75% and the class signature (behavioral signature; highest dose tested (150 mg/kg PO)) was “predominant antipsychotic-like signature”. For the same compound, the “% Remaining” value [1, 4] was 100%, the “Analyte Peak area/IS Peak area Mean (n = 2)” value [1, 4] was 0.286 and the “% Remaining” value [1, 5] was 4.4%. The “Analyte Peak area/IS Peak area Mean (n = 2)” value [1, 5] was 0.013, the “% Remaining” value [1, 6] was 3.0% and the “Analyte Peak area/IS Peak area Mean (n = 2)” value [1, 6] was 0.009. The “% Remaining” value [1, 7] was 1.3%, the “Analyte Peak area/IS Peak area Mean (n = 2)” value [1, 7] was 0.004 and the “% Remaining” value [1, 8] was 0.67%. For the same compound, the “Analyte Peak area/IS Peak area Mean (n = 2)” value [1, 8] was 0.002, the “% Remaining” value [1, 9] was 0.08% and the “Analyte Peak area/IS Peak area Mean (n = 2)” value [1, 9] was 0.000. For the same compound, the “% Remaining” value [1, 10] was 0.12%, the “Analyte Peak area/IS Peak area Mean (n = 2)” value [1, 10] was 0.000 and the half-life at 1 μM [1, 11] was 7.2 min. The microsomal CLint at 1 μM [1, 12] was 192 µL/min/mg.
In the case of `CCOc1ccccc1OCC1CN(C(=O)OC(OC(=O)[C@@H](N)C(C)C)C(C)C)CCO1` (stereo partly shown) [COMPOUND E], the “behavioral activity (class/subclass analysis)” value (behavioral signature; 40 and 80 mg/kg PO) is reported as “moderate activity”, the “% Remaining at 60 min” value ([1]; Human intestinal homogenates) is reported as 0.90% and the half-life at 1 μM [1, 13] is reported as 10.8 min. For the same compound, the microsomal CLint at 1 μM [1, 14] was 128 µL/min/mg, the “Plasma concentration of Viloxazine” value ([2]; COMPOUND E PO 20.99 mg/kg, 8.00 h) was “BQL” and the “Plasma concentration of Viloxazine” value ([2]; COMPOUND E PO 20.99 mg/kg, 24.0 h) was “BQL”. The “% Remaining at 60 min (Mean)” value [3] was 0.0%.
For `CCOc1ccccc1OCC1CN(C(=O)OC(C)OC(=O)[C@H](N)C(C)C)CCO1` (stereo partly shown) [COMPOUND D], the “behavioral activity (class/subclass analysis)” value (behavioral signature; 40 and 80 mg/kg PO) was “dose dependent increase in activity”, the “% Remaining at 60 min” value ([1]; Human intestinal homogenates) was 0.00% and the half-life at 1 μM [1, 13] was 0.85 min. For the same compound, the microsomal CLint at 1 μM [1, 14] was 1630 µL/min/mg, the “Plasma concentration of Viloxazine” value ([2]; COMPOUND D PO 19.74 mg/kg, 8.00 h) was “BQL” and the “Plasma concentration of Viloxazine” value ([2]; COMPOUND D PO 19.74 mg/kg, 24.0 h) was “BQL”. The “% Remaining at 60 min (Mean)” value [3] was 0.0%.
With `CCOc1ccccc1OC[C@@H]1CN(C(=O)OC(C)OC(=O)[C@@H](N)C(C)C)CCO1` (stereo partly shown) [COMPOUND A] the “behavioral activity (class/subclass analysis)” value (behavioral signature; 30-120 mg/kg PO) was “high behavioral activity”, the Subclass signature (behavioral signature) was “predominantly cognitive enhancer-like” and the proximity to donepezil (behavioral signature) was greater than 65%. For the same compound, the proximity to thioperamide (behavioral signature) was greater than 75%, the “% Remaining” value [1, 4] was 100% and the “Analyte Peak area/IS Peak area Mean (n = 2)” value [1, 4] was 0.269. For the same compound, the “% Remaining” value [1, 5] was 0%, the “Analyte Peak area/IS Peak area Mean (n = 2)” value [1, 5] was 0.000 and the “% Remaining” value [1, 6] was 0%. The “Analyte Peak area/IS Peak area Mean (n = 2)” value [1, 6] was 0.000, the “% Remaining” value [1, 7] was 0% and the “Analyte Peak area/IS Peak area Mean (n = 2)” value [1, 7] was 0.000. For the same compound, the “% Remaining” value [1, 8] was 0%, the “Analyte Peak area/IS Peak area Mean (n = 2)” value [1, 8] was 0.000 and the “% Remaining” value [1, 9] was 0%. The “Analyte Peak area/IS Peak area Mean (n = 2)” value [1, 9] was 0.000, the “% Remaining” value [1, 10] was 0% and the “Analyte Peak area/IS Peak area Mean (n = 2)” value [1, 10] was 0.000. For the same compound, the half-life at 1 μM [1, 11] was less than 2.5 min.
In the case of `CCOc1ccccc1OC[C@@H]1CN(C(=O)OC(OC(=O)[C@@H](N)C(C)C)C(C)C)CCO1` (stereo partly shown) [COMPOUND B], the “behavioral activity (class/subclass analysis)” value (behavioral signature; 90 and 120 mg/kg PO) is reported as “high behavioral activity”, the Subclass signature (behavioral signature) is reported as “predominantly cognitive enhancer-like” and the “% Remaining” value [1, 4] is reported as 100%. For the same compound, the “Analyte Peak area/IS Peak area Mean (n = 2)” value [1, 4] was 0.275, the “% Remaining” value [1, 5] was 7.3% and the “Analyte Peak area/IS Peak area Mean (n = 2)” value [1, 5] was 0.020. For the same compound, the “% Remaining” value [1, 6] was 7.1%, the “Analyte Peak area/IS Peak area Mean (n = 2)” value [1, 6] was 0.020 and the “% Remaining” value [1, 7] was 6.1%. The “Analyte Peak area/IS Peak area Mean (n = 2)” value [1, 7] was 0.017, the “% Remaining” value [1, 8] was 2.7% and the “Analyte Peak area/IS Peak area Mean (n = 2)” value [1, 8] was 0.007. The “% Remaining” value [1, 9] was 0.57%, the “Analyte Peak area/IS Peak area Mean (n = 2)” value [1, 9] was 0.002 and the “% Remaining” value [1, 10] was 0.8%. The “Analyte Peak area/IS Peak area Mean (n = 2)” value [1, 10] was 0.002, the half-life at 1 μM [1, 11] was 10.3 min and the microsomal CLint at 1 μM [1, 12] was 135 µL/min/mg.
